# Laboratory results: patent US8518372B2, “Coronin 1 modulators for the treatment of autoimmune and Lymphoproliferative disorders and mycobacterial infections” (priority 2006, dated 2013)
# Like-named read-outs stand apart in the source and are kept apart here.
# How the values were obtained:
# [1] = system: Mycobacterium bovis BCG; format: cell-based
# [2] = system: M. bovis BCG in bone marrow derived macrophages; format: cell-based, mice; settings: for lysosomal delivery of mycobacteria: infection 1 h, chase 3 h
# [3] = system: mycobacteria; assay: Bacterial proliferation in presence or absence of calcineurin inhibitors; format: cell-based; settings: FIG. 10h
# [4] = system: macrophages; assay: Protein synthesis in macrophages; format: cell-based, mice
# [5] = system: macrophages; assay: Macrophage viability
# [6] = system: bone marrow derived macrophages; assay: Calcium fluorimetry (Fluo3) in macrophages; format: cell-based, mice; settings: Fluo-3, FIG. 10a
smiles,measurement,setting,value
CC(=O)OCOC(=O)CN(CC(=O)OCOC(C)=O)c1ccccc1OCCOc1ccccc1N(CC(=O)OCOC(C)=O)CC(=O)OCOC(C)=O [BAPTA-AM],survival of mycobacteria within macrophages,"[1]; BAPTA-AM present, FIG. 10e",killed
same,lysosomal delivery of mycobacteria,"[2]; BAPTA-AM 1 μM, FIG. 10c,d",virtually all mycobacteria were transported to lysosomes
"C=CC[C@@H]1/C=C(\C)C[C@H](C)C[C@H](OC)[C@H]2O[C@@](O)(C(=O)C(=O)N3CCCC[C@H]3C(=O)O[C@H](/C(C)=C/[C@@H]3CC[C@@H](O)[C@H](OC)C3)[C@H](C)[C@@H](O)CC1=O)[C@H](C)C[C@@H]2OC [FK506, tacrolimus]",survival of mycobacteria within macrophages,"[1]; wild type bone marrow derived macrophages, calcineurin inhibitor present, FIG. 10h",unable to survive within macrophages
same,lysosomal delivery of mycobacteria,"[2]; FK506 0.5 μM, FIG. 10g",complete relocation of mycobacteria to lysosomes
same,bacterial proliferation,[3],identical in the presence or absence
C[C@@H]1C[C@@H]([C@H](O)CC2CC(=O)NC(=O)C2)C(=O)[C@@H](C)C1 [cycloheximide],survival of mycobacteria,[1],did not result in alteration
same,protein synthesis,[4],efficiently blocked protein synthesis
same,intracellular routing of mycobacteria,[2],did not result in alteration
same,macrophage viability,[5],without compromising macrophage viability
C[C@H](CCC(=O)O)C[C@H](C)C[C@H](C)C(=O)/C=C(\O)[C@H](C)C[C@H](C)C/C=C/[C@@H](C)[C@@H](O)[C@@H](C)[C@@H](O)C[C@@H]1CC[C@@](C)([C@H]2CC[C@@](C)([C@@H](C)O)O2)O1 [ionomycin],cytosolic Ca2+ flux upon stimulation,[6]; coronin 1 deficient macrophages,no Ca^2+ flux was observed
same,cytosolic Ca2+ flux upon stimulation,[6]; macrophages from wild type mice,accompanied with a flux of cytosolic Ca^2+
